Assay results from patent US20040166058A1, “Ethylenedicysteine (EC)-drug conjugates, compositions and methods for tissue specific disease imaging” (Board of Regents, The University of Texas System, priority 2002, published 2004).

Experiments:
[1] = test system: human lung cancer cells (A549 tumor cell line); assay: Biodistribution in lung tumor-bearing nude mice; type: in vivo, athymic nude mice; conditions: for Biodistribution Blood / Biodistribution Brain / Biodistribution Heart / Biodistribution Intestine / Biodistribution Kidney / Biodistribution Liver / Biodistribution Lung / Biodistribution Muscle / Biodistribution Spleen / Biodistribution Stomach / Biodistribution Thyroid / Biodistribution Tumor / Tumor/Blood / Tumor/Lung / Tumor/Muscle: intravenously
Protocol: Female athymic nude mice (NCr-nu/nu, NCI, Bethasda, Md.) were inoculated with human lung cancer cells (A549 tumor cell line, 3×10^6 cells/mouse, intramuscular) by one author in the mid-dorsal region. After the tumor reached 6 mm, separate biodistribution studies using ^99mTc-EC-DG and 18F-FDG were conducted. Each received ^99mTc-EC-DG or 18F-FDG intravenously (n=3/time point). The injection activity was 1-3 μCi/mouse. The injected mass of ^99mTc-EC-DG was 0.2 mg/rodent.

[2] = test system: 13762 tumor cell line mammary tumor; assay: Gamma scintigraphic imaging in Fischer 344 rats with 13762 mammary tumor; type: in vivo; conditions: 0.5, 2 and 4 hours after i.v. injection of 300 μCi
Protocol: Female Fischer 344 rats (250-275 g each) (Harlan, Inc., Indianapolis, Ind.) were inoculated with mammary tumor cells by one author from the 13762 tumor cell line (s.c. 10^6 cells/rat, a tumor cell line specific to Fischer rats). After 8-10 days, tumor volumes of 0.3-0.6 cm were measured. Scintigraphic images were obtained 0.5, 2 and 4 hours after i.v. injection of 300 μCi of ^99mTc-EC or ^99mTc-EC-DG (n=3/agent, total 6 rats). ROI between tumor tissue and muscle (at symmetric site) was used to determine tumor/non-tumor ratios. The smallest tumor volume that could be detected by ^99mTc-EC-DG was 3 mm.

[3] = In vitro cell culture of ^99mTc-EC-DG with or without transition chelators; type: cell-based; conditions: kit formulation
Excerpt: It may also be important to include an antioxidant and a transition chelator in the composition to prevent oxidation of the ethylenedicysteine. For example, the antioxidant may be vitamin C (ascorbic acid). However, other antioxidants known to those of ordinary skill in the art, such as tocopherol, pyridoxine, thiamine, or rutin, may also be used. Any transition chelator known to those of ordinary skill in the art may be used in conjunction with the present invention. Examples of transition chelators include glucoheptonate, gluconate, glucarate, citrate, and tartarate.

Tumor/Blood ([1]; 30 min): 0.499 ± 0.022
Tumor/Lung ([1]; 30 min): 0.769 ± 0.047
Tumor/Muscle ([1]; 30 min): 3.352 ± 0.749
Tumor/Blood ([1]; 2 h): 0.424 ± 0.022
Tumor/Lung ([1]; 2 h): 0.587 ± 0.046
Tumor/Muscle ([1]; 2 h): 2.754 ± 0.120
Tumor/Blood ([1]; 4 h): 0.502 ± 0.120
Tumor/Lung ([1]; 4 h): 0.640 ± 0.120
Tumor/Muscle ([1]; 4 h): 2.795 ± 0.982
stability with or without transition chelators (gluconate and glucarate) [3]: does not interfere with the stability
Structure (SMILES): O=C(NC1C(O)OC(CO)C(O)C1O)C1C[S][99Tc]23(=[O])[S]CC(C(=O)NC4C(O)OC(CO)C(O)C4O)[N]2CC[N]13 (stereo not drawn) [^99mTc-EC-DG]
Biodistribution Blood ([1]; 30 min): 1.607 ± 0.389 % of injected dose per gram of tissue weight
Biodistribution Brain ([1]; 30 min): 0.058 ± 0.008 % of injected dose per gram of tissue weight
Biodistribution Heart ([1]; 30 min): 0.611 ± 0.193 % of injected dose per gram of tissue weight
Biodistribution Intestine ([1]; 30 min): 0.510 ± 0.093 % of injected dose per gram of tissue weight
Biodistribution Kidney ([1]; 30 min): 6.726 ± 1.842 % of injected dose per gram of tissue weight
Biodistribution Liver ([1]; 30 min): 5.674 ± 2.089 % of injected dose per gram of tissue weight
Biodistribution Lung ([1]; 30 min): 1.048 ± 0.259 % of injected dose per gram of tissue weight
Biodistribution Muscle ([1]; 30 min): 0.264 ± 0.072 % of injected dose per gram of tissue weight
Biodistribution Spleen ([1]; 30 min): 3.240 ± 1.709 % of injected dose per gram of tissue weight
Biodistribution Stomach ([1]; 30 min): 0.540 ± 0.113 % of injected dose per gram of tissue weight
Biodistribution Thyroid ([1]; 30 min): 0.929 ± 0.212 % of injected dose per gram of tissue weight
Biodistribution Tumor ([1]; 30 min): 0.787 ± 0.163 % of injected dose per gram of tissue weight
Biodistribution Blood ([1]; 2 h): 0.977 ± 0.267 % of injected dose per gram of tissue weight
Biodistribution Brain ([1]; 2 h): 0.042 ± 0.006 % of injected dose per gram of tissue weight
Biodistribution Heart ([1]; 2 h): 0.336 ± 0.080 % of injected dose per gram of tissue weight
Biodistribution Intestine ([1]; 2 h): 0.417 ± 0.110 % of injected dose per gram of tissue weight
Biodistribution Kidney ([1]; 2 h): 5.687 ± 1.540 % of injected dose per gram of tissue weight
Biodistribution Liver ([1]; 2 h): 5.807 ± 1.708 % of injected dose per gram of tissue weight
Biodistribution Lung ([1]; 2 h): 0.721 ± 0.210 % of injected dose per gram of tissue weight
Biodistribution Muscle ([1]; 2 h): 0.148 ± 0.039 % of injected dose per gram of tissue weight
Biodistribution Spleen ([1]; 2 h): 4.205 ± 1.374 % of injected dose per gram of tissue weight
Biodistribution Stomach ([1]; 2 h): 0.439 ± 0.138 % of injected dose per gram of tissue weight
Biodistribution Thyroid ([1]; 2 h): 0.665 ± 0.207 % of injected dose per gram of tissue weight
Biodistribution Tumor ([1]; 2 h): 0.415 ± 0.123 % of injected dose per gram of tissue weight
Biodistribution Blood ([1]; 4 h): 0.787 ± 0.152 % of injected dose per gram of tissue weight
Biodistribution Brain ([1]; 4 h): 0.042 ± 0.006 % of injected dose per gram of tissue weight
Biodistribution Heart ([1]; 4 h): 0.318 ± 0.071 % of injected dose per gram of tissue weight
Biodistribution Intestine ([1]; 4 h): 0.374 ± 0.073 % of injected dose per gram of tissue weight
Biodistribution Kidney ([1]; 4 h): 4.318 ± 0.890 % of injected dose per gram of tissue weight
Biodistribution Liver ([1]; 4 h): 6.656 ± 1.786 % of injected dose per gram of tissue weight
Biodistribution Lung ([1]; 4 h): 0.606 ± 0.128 % of injected dose per gram of tissue weight
Biodistribution Muscle ([1]; 4 h): 0.147 ± 0.022 % of injected dose per gram of tissue weight
Biodistribution Spleen ([1]; 4 h): 5.933 ± 3.194 % of injected dose per gram of tissue weight
Biodistribution Stomach ([1]; 4 h): 0.541 ± 0.119 % of injected dose per gram of tissue weight
Biodistribution Thyroid ([1]; 4 h): 0.692 ± 0.119 % of injected dose per gram of tissue weight
Biodistribution Tumor ([1]; 4 h): 0.414 ± 0.161 % of injected dose per gram of tissue weight
tumor/muscle and tumor/brain ratios, ^99mTc-EC-DG versus 18F-FDG ([1]; as a function of time): higher tumor/muscle and tumor/brain ratios
organs visualized [2]: Heart, kidneys, liver, and bladder were visualized
